According to publication doi:10.1101/2023.11.24.568596v1 (biorxiv, 2023):
Values belong to the compound of their own block, whether it stands above or below them.

Legend:
Settings in all cases: binder
[1] = target: PAK4 (Homo sapiens, UniProt O96013)
[2] = target: NDR2 (Homo sapiens, UniProt Q9Y2H1)
[3] = target: JNK3 (Homo sapiens, UniProt P53779)
[4] = target: T1, PLK4 (Homo sapiens, UniProt O00444)
T1 sequence (O00444 1-970): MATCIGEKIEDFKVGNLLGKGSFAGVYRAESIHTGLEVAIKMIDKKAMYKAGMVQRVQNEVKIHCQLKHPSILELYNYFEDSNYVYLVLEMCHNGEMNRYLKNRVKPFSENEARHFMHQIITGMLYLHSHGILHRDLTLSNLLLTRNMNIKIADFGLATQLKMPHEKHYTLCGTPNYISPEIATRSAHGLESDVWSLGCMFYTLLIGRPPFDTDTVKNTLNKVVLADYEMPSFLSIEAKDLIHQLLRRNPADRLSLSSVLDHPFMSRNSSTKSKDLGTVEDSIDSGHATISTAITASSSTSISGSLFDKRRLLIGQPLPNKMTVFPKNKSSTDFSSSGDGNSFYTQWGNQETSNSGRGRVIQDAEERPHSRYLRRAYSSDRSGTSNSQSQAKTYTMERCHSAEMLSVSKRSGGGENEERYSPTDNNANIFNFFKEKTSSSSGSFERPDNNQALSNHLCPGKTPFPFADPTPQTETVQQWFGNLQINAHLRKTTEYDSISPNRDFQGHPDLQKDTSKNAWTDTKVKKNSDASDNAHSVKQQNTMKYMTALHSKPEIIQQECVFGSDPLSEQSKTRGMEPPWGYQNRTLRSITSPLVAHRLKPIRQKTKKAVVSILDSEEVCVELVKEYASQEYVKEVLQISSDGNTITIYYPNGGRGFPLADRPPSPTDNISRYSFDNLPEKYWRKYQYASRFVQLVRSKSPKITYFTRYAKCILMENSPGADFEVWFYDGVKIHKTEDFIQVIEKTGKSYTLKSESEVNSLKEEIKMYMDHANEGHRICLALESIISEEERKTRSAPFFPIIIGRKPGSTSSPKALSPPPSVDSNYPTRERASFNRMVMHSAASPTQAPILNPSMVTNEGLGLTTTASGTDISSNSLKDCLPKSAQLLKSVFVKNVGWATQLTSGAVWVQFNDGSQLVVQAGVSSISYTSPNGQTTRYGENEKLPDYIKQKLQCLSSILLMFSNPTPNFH

[5] = target: T2, MAP2K6 (Homo sapiens, UniProt P52564)
T2 sequence (P52564 1-334): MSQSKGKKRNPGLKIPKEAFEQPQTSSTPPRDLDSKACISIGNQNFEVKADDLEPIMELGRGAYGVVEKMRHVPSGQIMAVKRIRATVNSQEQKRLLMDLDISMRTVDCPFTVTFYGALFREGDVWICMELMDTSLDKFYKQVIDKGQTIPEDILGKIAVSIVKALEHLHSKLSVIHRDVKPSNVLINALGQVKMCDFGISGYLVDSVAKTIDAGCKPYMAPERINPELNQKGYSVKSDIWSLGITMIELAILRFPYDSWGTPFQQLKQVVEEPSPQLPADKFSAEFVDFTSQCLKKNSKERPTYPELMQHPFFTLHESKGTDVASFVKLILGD

JNK3, sequence (P53779 whole entry): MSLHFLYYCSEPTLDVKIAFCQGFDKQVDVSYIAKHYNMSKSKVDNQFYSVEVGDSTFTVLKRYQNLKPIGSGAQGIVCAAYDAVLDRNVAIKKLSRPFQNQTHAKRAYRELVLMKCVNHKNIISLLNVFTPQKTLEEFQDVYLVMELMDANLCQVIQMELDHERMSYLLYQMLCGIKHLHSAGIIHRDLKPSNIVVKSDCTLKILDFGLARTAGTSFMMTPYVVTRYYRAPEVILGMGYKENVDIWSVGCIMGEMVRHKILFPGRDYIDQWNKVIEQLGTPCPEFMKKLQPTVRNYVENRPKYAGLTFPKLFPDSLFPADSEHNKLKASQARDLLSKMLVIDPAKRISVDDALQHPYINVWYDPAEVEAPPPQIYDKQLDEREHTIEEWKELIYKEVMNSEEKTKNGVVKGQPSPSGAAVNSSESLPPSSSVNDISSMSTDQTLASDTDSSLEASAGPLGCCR
PAK4, sequence (O96013 whole entry): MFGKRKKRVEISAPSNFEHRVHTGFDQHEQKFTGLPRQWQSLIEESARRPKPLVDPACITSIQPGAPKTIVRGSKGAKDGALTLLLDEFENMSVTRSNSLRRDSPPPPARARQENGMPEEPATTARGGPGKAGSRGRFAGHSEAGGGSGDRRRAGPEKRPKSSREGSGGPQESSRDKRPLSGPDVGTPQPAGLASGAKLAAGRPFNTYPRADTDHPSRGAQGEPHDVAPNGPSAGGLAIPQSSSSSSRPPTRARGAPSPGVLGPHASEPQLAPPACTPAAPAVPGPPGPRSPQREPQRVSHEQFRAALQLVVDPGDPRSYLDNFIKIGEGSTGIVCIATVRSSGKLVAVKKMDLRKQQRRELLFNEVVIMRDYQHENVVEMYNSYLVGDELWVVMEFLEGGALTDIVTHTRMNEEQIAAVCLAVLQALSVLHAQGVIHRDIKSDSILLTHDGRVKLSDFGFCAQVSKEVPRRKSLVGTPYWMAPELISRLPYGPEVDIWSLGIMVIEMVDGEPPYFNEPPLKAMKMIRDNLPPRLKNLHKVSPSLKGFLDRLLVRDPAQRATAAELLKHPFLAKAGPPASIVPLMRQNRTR
NDR2, sequence (Q9Y2H1 whole entry): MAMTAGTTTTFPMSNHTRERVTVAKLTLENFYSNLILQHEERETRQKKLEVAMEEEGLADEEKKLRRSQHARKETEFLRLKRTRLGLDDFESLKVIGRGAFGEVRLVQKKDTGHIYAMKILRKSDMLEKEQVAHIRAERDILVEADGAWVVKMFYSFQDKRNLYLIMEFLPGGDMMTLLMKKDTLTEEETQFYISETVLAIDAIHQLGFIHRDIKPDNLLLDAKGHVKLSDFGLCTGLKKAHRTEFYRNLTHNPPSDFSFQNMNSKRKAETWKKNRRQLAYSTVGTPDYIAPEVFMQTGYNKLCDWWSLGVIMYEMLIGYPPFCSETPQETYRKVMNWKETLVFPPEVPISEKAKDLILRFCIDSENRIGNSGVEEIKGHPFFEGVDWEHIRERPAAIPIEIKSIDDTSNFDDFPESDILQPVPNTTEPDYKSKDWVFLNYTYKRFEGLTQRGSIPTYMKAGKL

dTm 33 [1]: 8.2 °C | dTm 33 [2]: 10.4 °C | dTm 33 [3]: 5.2 °C | dTm 33 [4]: 13.1 °C | dTm 33 [5]: 10.2 °C
SMILES: Cc1cccc(-c2ccc(-c3cc4cnc(Nc5ccc(F)c(CO)c5)nc4n(CCCCN)c3=O)c(Cl)c2)n1 [compound 33, 8-(4-Aminobutyl)-6-(2-chloro-4-(6-methylpyridin-2-yl)phenyl)-2-((4-fluoro-3-(hydroxymethyl)phenyl)amino)pyrido[2,3-d]pyrimidin-7(8H)-one]

dTm 34 [1]: 3.0 °C | dTm 34 [2]: 6.0 °C | dTm 34 [3]: 3.0 °C | dTm 34 [4]: 8.8 °C | dTm 34 [5]: 5.4 °C
SMILES: COc1ccc(O)c(Nc2ncc3cc(-c4ccc(-c5cccc(C)n5)cc4Cl)c(=O)n(CCCCN)c3n2)c1 [compound 34, 8-(4-Aminobutyl)-6-(2-chloro-4-(6-methylpyridin-2-yl)phenyl)-2-((2-hydroxy-5-methoxy-phenyl)amino)pyrido[2,3-d]pyrimidin-7(8H)-one]

dTm 35 [1]: 4.1 °C | dTm 35 [2]: 6.5 °C | dTm 35 [3]: 2.3 °C | dTm 35 [4]: 13.6 °C | dTm 35 [5]: 6.8 °C
SMILES: COc1cc(N2CCOCC2)ccc1Nc1ncc2cc(-c3ccc(-c4cccc(C)n4)cc3Cl)c(=O)n(CCCCN)c2n1 [compound 35, 8-(4-Aminobutyl)-6-(2-chloro-4-(6-methylpyridin-2-yl)phenyl)-2-((2-methoxy-4-morpholino-phenyl)amino)pyrido[2,3-d]pyrimidin-7(8H)-one]

dTm 36 [1]: 3.9 °C | dTm 36 [2]: 5.2 °C | dTm 36 [3]: 1.1 °C | dTm 36 [4]: 11.8 °C | dTm 36 [5]: 4.4 °C
SMILES: COc1cc(N2CCN(C)CC2)ccc1Nc1ncc2cc(-c3ccc(-c4cccc(C)n4)cc3Cl)c(=O)n(CCCCN)c2n1 [compound 36, 8-(4-Aminobutyl)-6-(2-chloro-4-(6-methylpyridin-2-yl)phenyl)-2-((2-methoxy-4-(4-methylpiperazin-1-yl)phenyl)amino)pyrido[2,3-d]pyrimidin-7(8H)-one]
